Data set [1] can be described thus: in vitro. The conditions noted are these: human, 16HBE14o- cells.
Description: (§1) Cytotoxicity against human 16HBE14o- after 72 hrs by MTT assay
A short description of data set [2]: in vitro. Conditions: chlorocebus sabaeus, Vero E6 cells; call rule not given here.
For data set [3] the following is noted: pampa, pH 7.4, 18 h.
Description: (§2) Permeability of compound in PBS at pH 7.4 after 18 hrs by PAMPA
Data set [4] can be described thus: Aqueous solubility of the compound in Britton-Robinson buffer at pH 6.5 after 48 hrs by shake flask method. It counts as physicochemical.
The subject of data set [5] is Vero C1008. Conditions: chlorocebus sabaeus, vero c1008, 72 h.
Description: Cytotoxicity against African green monkey Vero E6 cells after 72 hrs by MTT assay
The test system of data set [6] is 16HBE14o-. The conditions noted are these: human, 72 h.
Description: as §1
Data set [7] concerns SARS-CoV-2. The conditions noted are these: 16hbe14o-.
Description: Antiviral activity against SARS-CoV-2 infected in 16HBE14o- cells assessed as inhibition of viral replication after 1 day by Nano-Glo luciferase assay
The nature of data set [8]: in vitro. Conditions: PAMPA, pH 7.4. For orientation: PAMPA measures passive passage across an artificial lipid membrane.
Description: as §2

Values after ≈ are worked out from the molar mass of the structure shown. Where only a bound is given, the exact number is not on record here.

As for `CCC(CC)COC(=O)[C@H](C)N[P@](=O)(OC[C@H]1O[C@@](C#N)(c2ccc3c(N)ncnn23)[C@H](O)[C@@H]1O)Oc1ccccc1`, the CC50 at 72 h in data set [1] was 41 µM; in data set [2], 72 µM.

Take `CCCOc1cc(Cl)cc(-c2cc(-c3ccccc3C#N)cn(-c3cccnc3)c2=O)c1`: the CC50 at 72 h in data set [1] stood at 20 µM; in data set [2] it was 22 µM.

`N#Cc1ccccc1-c1cc(-c2cc(Cl)cc(OCCC(F)(F)F)c2)c(=O)n(-c2cccnc2)c1`: the CC50 at 72 h was 25 µM in data set [1] and 22 µM in data set [2]. The permeability in data set [3] is reported as 4 10^-6 cm/s. This molecule came in with a solubility (thermodynamic) at 48 h in data set [4] of 25 µg/mL (≈ 50.4 µM).

`N#Cc1ccccc1-c1cc(-c2cc(Cl)cc(OCC3CC3)c2)c(=O)n(-c2cccnc2)c1`: the CC50 at 72 h in data set [1] and in data set [2] was above 100 µM throughout. The permeability in data set [3] is 4.27 10^-6 cm/s. For the same molecule, the solubility (thermodynamic) at 48 h in data set [4] is 3 µg/mL (≈ 6.61 µM).

Turning to `Cn1cc(-c2cc(-c3cc(Cl)c(F)c(OCc4ccccc4Cl)c3)c(=O)n(-c3cccnc3)c2)c(=O)[nH]c1=O`, the CC50 at 72 h in data set [1] is above 32.5 µM. In addition, the CC50 in data set [5] is above 32.5 µM. Besides, the solubility (thermodynamic) at 48 h in data set [4] was determined as 116 µg/mL (≈ 206 µM).

For the molecule `Cc1ncoc1COc1cc(Cl)cc(-c2cc(-c3c[nH]c(=O)[nH]c3=O)cn(-c3cccnc3)c2=O)c1`, the permeability in data set [3] was 0.24 10^-6 cm/s. Moreover, in data set [4], the thermodynamic solubility at 48 h is 168 µg/mL (≈ 333 µM).

Regarding `Cn1cc(-c2cc(-c3cc(Cl)cc(OCc4scnc4C(F)(F)F)c3)c(=O)n(-c3cccnc3)c2)c(=O)[nH]c1=O`, the CC50 at 72 h in data set [1] was above 100 µM. Besides, the permeability in data set [3] is on record as 1.16 10^-6 cm/s. The CC50 in data set [5] is above 100 µM. In data set [4], this molecule displayed a thermodynamic solubility at 48 h of 24.8 µg/mL (≈ 42.2 µM).

For `Cc1scnc1COc1cc(Cl)cc(-c2cc(-c3c[nH]c(=O)[nH]c3=O)cn(-c3cccnc3)c2=O)c1`, the figures for the CC50 in data set [5] and in data set [6] were above 100 µM and 22 µM, respectively.

As to `O=c1[nH]cc(-c2cc(-c3cc(Cl)c(F)c(OCc4ccccc4Cl)c3)c(=O)n(-c3cccnc3)c2)c(=O)[nH]1`, the CC50 at 72 h in data set [1] was above 95 µM. For the same molecule, the permeability in data set [3] is 0.73 10^-6 cm/s. The CC50 in data set [5] is above 80 µM. Moreover, the thermodynamic solubility at 48 h in data set [4] stood at 21.8 µg/mL (≈ 39.5 µM).

Turning to `Cc1ocnc1COc1cc(Cl)cc(-c2cc(-c3ccccc3C#N)cn(-c3cccnc3)c2=O)c1`, the permeability in data set [3] is 3.04 10^-6 cm/s. This molecule registered a solubility (thermodynamic) at 48 h in data set [4] of 13.1 µg/mL (≈ 26.5 µM).

In turn, `Cn1cc(-c2cc(-c3cc(Cl)cc(OCC4CC4)c3)c(=O)n(-c3cccnc3)c2)c(=O)[nH]c1=O` registered a CC50 at 72 h in data set [1] above 100 µM. Moreover, in data set [3], the permeability is 3.25 10^-6 cm/s. The CC50 in data set [5] was determined as 82 µM. Further, in data set [4], the solubility (thermodynamic) at 48 h came out at 14.2 µg/mL (≈ 29.8 µM).

As for `Cn1cc(-c2cc(-c3cc(Cl)cc(OCc4ocnc4C(F)(F)F)c3)c(=O)n(-c3cccnc3)c2)c(=O)[nH]c1=O`, the permeability in data set [3] is given as 1.03 10^-6 cm/s. The same molecule displayed a thermodynamic solubility at 48 h in data set [4] of 34.5 µg/mL (≈ 60.3 µM).

As to `Cn1cc(-c2cc(-c3cc(Cl)cc(OCCC(F)(F)F)c3)c(=O)n(-c3cccnc3)c2)c(=O)[nH]c1=O`, the CC50 at 72 h in data set [1] came to 95 µM. The permeability in data set [3] is on record as 2.26 10^-6 cm/s. In addition, the CC50 in data set [5] is above 100 µM. The solubility (thermodynamic) at 48 h in data set [4] was determined as 57 µg/mL (≈ 110 µM).

With `O=c1[nH]cc(-c2cc(-c3cc(Cl)cc(OCc4scnc4C(F)(F)F)c3)c(=O)n(-c3cccnc3)c2)c(=O)[nH]1`, the CC50 at 72 h in data set [1] is above 100 µM. For the same molecule, the CC50 in data set [5] was above 100 µM. For the same molecule, the EC50 entry in data set [7] is on record as “Not Active”.

With `O=c1[nH]cc(-c2cc(-c3cc(Cl)cc(OCc4ocnc4C(F)(F)F)c3)c(=O)n(-c3cccnc3)c2)c(=O)[nH]1`, the CC50 at 72 h in data set [1] is above 100 µM. Further, the permeability in data set [3] is given as 0.57 10^-6 cm/s. Moreover, in data set [5], the CC50 was above 100 µM. In addition, the EC50 entry in data set [7] is listed as “Not Active”.

Molecule `Cc1ocnc1COc1cc(Cl)cc(-c2cc(-c3c[nH]c(=O)[nH]c3=O)cn(-c3cccnc3)c2=O)c1` displayed a thermodynamic solubility at 48 h in data set [4] of 7.6 µg/mL (≈ 15.1 µM).

As to `O=C(N[C@H](CO)[C@H](O)c1ccc([N+](=O)[O-])cc1)C(Cl)Cl` [CHLORAMPHENICOL], the Papp at 18 h in data set [8] stood at 5 ×10⁻⁶ cm/s.

In turn, `Cn1c(=O)c2[nH]cnc2n(C)c1=O.O` [THEOPHYLLINE] came in with a Papp at 18 h in data set [8] of 0.3 ×10⁻⁶ cm/s.

The solubility (thermodynamic) is solubility found after equilibrating the solid with the medium. As a reminder, the Papp is a coefficient for how fast a substance crosses the barrier. A lower Papp goes with poor permeation.

For the origin of these results see ChEMBL document CHEMBL4823308, “Optimization of Triarylpyridinone Inhibitors of the Main Protease of SARS-CoV-2 to Low-Nanomolar Antiviral Potency” (ACS Med Chem Lett, 2021).
